These results are taken from article PMC7917901 (Marine Drugs, 2021).

Series [1] deals with surgery-induced mechanical allodynia. Further details: species or system mice (C57BL/6J). To be noted: mouse, in vivo.
Series [2] deals with surgery-induced thermal allodynia. Further details: species or system mice (C57BL/6J). To be noted: mouse, in vivo.
Series [3] concerns oxaliplatin-induced mechanical allodynia. Further details: species or system mice (C57BL/6J). Particulars: mouse, in vivo.
The test system is the same in series [4]. Further details: species or system mice (C57BL/6J). To be noted: mouse, in vivo. This is another data set of the same source.
Series [5] concerns cisplatin-induced mechanical allodynia. Further details: species or system mice (C57BL/6J). To be noted: mouse, in vivo.
In series [6] the test system is naïve C57BL6/J mice. To be noted: mouse, in vivo.
In series [7] the test system is naïve C57BL6/J mice. To be noted: mouse, in vivo. This is another data set of the same source.
Series [8] relates to naïve C57BL6/J mice. To be noted: mouse, in vivo. This is another data set of the same source.
The next series concerns CaV channel. To be noted: cited from earlier work.
The test system of a further series is mouse inflammatory pain. Particulars: in vivo, sc; cited from earlier work.
For series [9] the following is noted: in vivo; cited from earlier work.
The target of series [10] is T1, endogenous CaV2.2 channels, expressed in the SH-SY5Y cells (Homo sapiens, UniProt Q00975).
T1 construct: endogenous CaV2.2 channels, expressed in the SH-SY5Y cells; endogenous in cells; host or cells: SH-SY5Y human neuroblastoma cells
T1 sequence (Q00975 whole entry, looked up): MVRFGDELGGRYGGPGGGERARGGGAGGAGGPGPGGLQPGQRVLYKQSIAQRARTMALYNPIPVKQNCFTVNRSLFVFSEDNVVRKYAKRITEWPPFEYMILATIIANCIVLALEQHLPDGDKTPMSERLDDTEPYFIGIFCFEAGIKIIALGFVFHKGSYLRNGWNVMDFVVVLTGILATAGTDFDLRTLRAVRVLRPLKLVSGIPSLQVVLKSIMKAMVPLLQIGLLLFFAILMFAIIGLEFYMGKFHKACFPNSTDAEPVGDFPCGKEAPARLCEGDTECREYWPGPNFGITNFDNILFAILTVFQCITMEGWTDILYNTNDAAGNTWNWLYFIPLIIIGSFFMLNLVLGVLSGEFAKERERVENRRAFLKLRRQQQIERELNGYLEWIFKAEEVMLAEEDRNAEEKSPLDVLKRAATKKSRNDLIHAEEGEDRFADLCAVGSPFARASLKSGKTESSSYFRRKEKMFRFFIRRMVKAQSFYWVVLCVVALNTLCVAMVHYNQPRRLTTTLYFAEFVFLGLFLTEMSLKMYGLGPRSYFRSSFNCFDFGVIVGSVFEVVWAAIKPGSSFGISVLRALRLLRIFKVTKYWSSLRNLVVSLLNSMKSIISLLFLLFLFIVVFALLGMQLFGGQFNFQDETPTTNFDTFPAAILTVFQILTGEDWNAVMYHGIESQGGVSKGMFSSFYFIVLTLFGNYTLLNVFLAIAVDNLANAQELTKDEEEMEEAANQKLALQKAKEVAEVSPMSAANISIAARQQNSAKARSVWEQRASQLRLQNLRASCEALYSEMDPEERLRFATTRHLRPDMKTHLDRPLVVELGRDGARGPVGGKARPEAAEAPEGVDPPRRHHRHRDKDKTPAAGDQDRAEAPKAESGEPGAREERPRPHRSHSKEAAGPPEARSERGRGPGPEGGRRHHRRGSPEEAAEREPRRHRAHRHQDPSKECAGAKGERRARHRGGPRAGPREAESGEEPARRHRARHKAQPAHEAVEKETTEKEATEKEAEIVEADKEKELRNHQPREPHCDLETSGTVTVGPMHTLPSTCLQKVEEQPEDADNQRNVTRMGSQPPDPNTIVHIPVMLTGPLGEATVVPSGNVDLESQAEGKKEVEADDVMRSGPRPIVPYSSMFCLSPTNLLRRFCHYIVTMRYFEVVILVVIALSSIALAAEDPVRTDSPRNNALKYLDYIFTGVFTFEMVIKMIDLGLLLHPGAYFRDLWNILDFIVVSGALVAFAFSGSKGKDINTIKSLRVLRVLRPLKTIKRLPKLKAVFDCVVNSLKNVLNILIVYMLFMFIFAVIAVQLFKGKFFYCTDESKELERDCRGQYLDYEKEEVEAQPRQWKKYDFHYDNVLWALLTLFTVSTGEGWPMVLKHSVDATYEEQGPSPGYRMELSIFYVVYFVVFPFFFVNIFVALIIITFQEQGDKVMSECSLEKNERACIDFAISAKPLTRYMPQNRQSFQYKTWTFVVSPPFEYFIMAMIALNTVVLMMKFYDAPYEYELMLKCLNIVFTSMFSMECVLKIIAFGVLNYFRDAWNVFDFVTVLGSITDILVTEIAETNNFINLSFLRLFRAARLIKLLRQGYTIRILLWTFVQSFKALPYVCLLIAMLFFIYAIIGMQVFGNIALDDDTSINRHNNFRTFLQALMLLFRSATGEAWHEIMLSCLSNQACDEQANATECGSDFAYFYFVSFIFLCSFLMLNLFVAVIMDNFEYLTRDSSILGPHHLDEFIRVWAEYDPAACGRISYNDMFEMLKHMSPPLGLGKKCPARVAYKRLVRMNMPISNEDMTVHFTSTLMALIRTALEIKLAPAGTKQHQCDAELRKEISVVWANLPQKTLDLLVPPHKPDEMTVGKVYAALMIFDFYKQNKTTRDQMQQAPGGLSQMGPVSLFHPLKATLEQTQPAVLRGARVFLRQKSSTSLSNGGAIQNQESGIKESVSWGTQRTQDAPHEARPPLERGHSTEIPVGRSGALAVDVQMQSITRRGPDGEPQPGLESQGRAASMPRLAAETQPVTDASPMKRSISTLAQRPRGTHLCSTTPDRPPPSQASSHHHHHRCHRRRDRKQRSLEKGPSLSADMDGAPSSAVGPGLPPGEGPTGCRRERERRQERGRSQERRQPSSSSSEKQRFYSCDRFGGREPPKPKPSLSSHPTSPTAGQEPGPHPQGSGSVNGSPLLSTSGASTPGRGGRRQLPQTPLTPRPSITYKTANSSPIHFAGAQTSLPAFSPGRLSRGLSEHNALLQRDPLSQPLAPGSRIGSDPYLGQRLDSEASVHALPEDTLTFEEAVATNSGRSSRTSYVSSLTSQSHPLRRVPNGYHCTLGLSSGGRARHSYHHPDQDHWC
Briefly: cell-based.

The conditions of series [11]: in vivo, cited from earlier work.

“Also recorded” adds a separate entry of the source. Positions of bridges follow the written chain, without caps; N, C: chain ends. Residues, ends and D or L forms follow the SMILES beside them.

Turning to `CC(C)C[C@@H]1NC(=O)[C@H](CCCNC(=N)N)NC(=O)[C@@H]2CSSC[C@@H]3NC(=O)[C@H](CO)NC(=O)[C@H](C)NC(=O)CNC(=O)[C@H](CCCCN)NC(=O)CNC(=O)[C@H](CCCCN)NC(=O)[C@@H](N)CSSC[C@H](NC(=O)[C@H](CSSC[C@@H](C(N)=O)NC(=O)[C@H](CCCNC(=N)N)NC(=O)CNC1=O)NC(=O)[C@H](CC(=O)O)NC(=O)[C@H](Cc1ccc(O)cc1)NC(=O)[C@H](CO)NC(=O)[C@H]([C@@H](C)O)NC(=O)[C@H](CCCNC(=N)N)NC(=O)[C@H](CCCNC(=N)N)NC3=O)C(=O)N[C@@H]([C@@H](C)O)C(=O)NCC(=O)N[C@@H](CO)C(=O)N2` [CVIF] (H-CKGKGASCRRTSYDCCTGSCRLGRC-NH2; disulfide 1-16, 8-20, 15-25), in [1], the “Effect on PSP mechanical allodynia, 6.0 pmol/paw” value is “remained unchanged; also recorded: did not produce any significant antiallodynic effect” and the “Mechanical PWT, PSP, 6.0 pmol/paw” value is reported as 1.4 ± 0.1 g. Further, in [2], the “Effect on PSP thermal allodynia” value is reported as “did not reverse thermal allodynia” and the “Thermal PWT, PSP, 2.0 pmol/paw” value is 48.9 ± 0.4 °C. In series [3], the “Activity across the pain models” value was “inactive in these pain models; also recorded: not found effective in any of the peripheral pain models”; the “Effect on OIPN mechanical PWT, 6 pmol/paw” value was “did not significantly change PWTs; also recorded: did not elicit significant antiallodynic effect”; the “Mechanical PWT, OIPN, 2.0 pmol/paw” value was found to be 1.9 ± 0.2 g; the “Mechanical PWT, OIPN, 6.0 pmol/paw” value is recorded as 1.7 ± 0.1 g. In addition, in [4], the “Effect of contralateral administration on OIPN mechanical PWT” value is “did not significantly change mechanical PWTs; also recorded: did not reverse mechanical allodynia” and the “Mechanical PWT, OIPN, contralateral administration” value worked out at 1.6 ± 0.4 g. Also, in [5], the “Effect on CisIPN mechanical PWT” value is given as “did not significantly change the PWTs; also recorded: did not produce any significant antiallodynic effect” and the “Mechanical PWT, CisIPN, 2 pmol/paw” value is 2.0 ± 0.3 g. Moreover, in the series with naïve C57BL6/J mice [6], the “Effect on basal mechanical PWT” value is “did not significantly change mechanical and thermal PWTs”; the “Mechanical PWT” value stood at 3.1 ± 0.2 g. Also, in the series with naïve C57BL6/J mice [7], the “Effect on basal thermal PWT” value is “did not significantly change mechanical and thermal PWTs”; the “Thermal PWT” value worked out at 50.8 ± 0.8 °C. For the same compound, in the series on naïve C57BL6/J mice [8], the Ataxia index was 7.3 ± 1.8, the “Ataxia index (paw slips/distance covered)” value is reported as 7.3 ± 1.8 m, the Distance covered is recorded as 1.7 ± 0.4 m and the “Number of paw slips” value was found to be 10.5 ± 1.5. In addition, the “Number of paw slips (printed with unit g)” value in the series on naïve C57BL6/J mice [8] turned out to be 10.5 ± 1.5 g. Further, the “State dependence of affinity” value with CaV channel is “higher affinity for channels in the inactivated state”. Further, in the series with mouse inflammatory pain, the “Effect on inflammatory pain” value is “partially reversed the incapacitance of mouse inflammatory pain” and the “Side effects after subcutaneous administration” value is recorded as “did not cause side effects”. Further, the “Safety profile” value in series [9] is “better safety profile in preclinical studies”.
The IC50 is the concentration at which inhibition is half-maximal. A lower IC50 goes with greater potency. `C[C@@H](O)[C@@H]1NC(=O)[C@H](Cc2ccc(O)cc2)NC(=O)[C@@H]2C[C@@H](O)CN2C(=O)[C@H](CC(N)=O)NC(=O)[C@@H]2CSSC[C@@H]3NC(=O)[C@H](CO)NC(=O)[C@H](CO)NC(=O)CNC(=O)[C@@H]4C[C@@H](O)CN4C(=O)[C@H](CO)NC(=O)[C@H](CCCCN)NC(=O)[C@@H](N)CSSC[C@H](NC(=O)[C@H](CSSC[C@@H](C(=O)N[C@@H](Cc4ccc(O)cc4)C(N)=O)NC(=O)[C@H](CCCN=C(N)N)NC(=O)[C@H](CCCCN)NC1=O)NC(=O)[C@H](CC(N)=O)NC(=O)[C@H](Cc1ccc(O)cc1)NC(=O)[C@H](CO)NC(=O)[C@H]([C@@H](C)O)NC(=O)[C@@H]1C[C@@H](O)CN1C(=O)[C@H](CO)NC3=O)C(=O)N[C@@H](CCCN=C(N)N)C(=O)N[C@@H](CO)C(=O)N2` [GVIA] showed an IC50 in [10] of 11.2 ± 3.3 nM. In the series with naïve C57BL6/J mice [6], the “Effect on basal mechanical PWT” value was “did not significantly change mechanical and thermal PWTs”. Also, in the series on naïve C57BL6/J mice [7], the “Effect on basal thermal PWT” value was “did not significantly change mechanical and thermal PWTs”. In the series with naïve C57BL6/J mice [8], the Ataxia index is on record as 6.9 ± 1.7, the “Ataxia index (paw slips/distance covered)” value is reported as 6.9 ± 1.7 m, the Distance covered stood at 1.7 ± 0.2 m and the “Number of paw slips” value is on record as 11.3 ± 2.8.
With `CSCC[C@@H]1NC(=O)[C@H](CC(C)C)NC(=O)[C@H](CCCNC(=N)N)NC(=O)[C@H](CO)NC(=O)[C@@H]2CSSC[C@@H]3NC(=O)[C@H](CO)NC(=O)CNC(=O)[C@H]([C@@H](C)O)NC(=O)[C@H](CSSC[C@H](N)C(=O)N[C@@H](CCCCN)C(=O)NCC(=O)N[C@@H](CCCCN)C(=O)NCC(=O)N[C@@H](C)C(=O)N[C@@H](CCCCN)C(=O)N2)NC(=O)[C@H](CSSC[C@@H](C(N)=O)NC(=O)[C@H](CCCCN)NC(=O)CNC(=O)[C@H](CO)NC(=O)[C@H](CCCNC(=N)N)NC3=O)NC(=O)[C@H](CC(=O)O)NC(=O)[C@H](Cc2ccc(O)cc2)NC1=O` [MVIIA], the “Effect on basal mechanical PWT” value in the series on naïve C57BL6/J mice [6] is “did not significantly change mechanical and thermal PWTs”. In the series with naïve C57BL6/J mice [7], the “Effect on basal thermal PWT” value was “did not significantly change mechanical and thermal PWTs”. Further, in the series on naïve C57BL6/J mice [8], the Ataxia index stood at 6.7 ± 1.6, the “Ataxia index (paw slips/distance covered)” value worked out at 6.7 ± 1.6 m, the Distance covered was determined as 1.8 ± 0.3 m and the “Number of paw slips” value stood at 11.0 ± 1.8. Also, in the series on naïve C57BL6/J mice [8], the “Number of paw slips (printed with unit g)” value turned out to be 11.0 ± 1.8 g. Also, in series [11] (po), the “Oral bioavailability and CNS access” value was “Poor oral bioavailability and CNS access”. For the same compound, the “Plasma half-life” value in series [11] was “short plasma half-life”.
